Data reported in patent publication US12503475B2 (Centessa Pharmaceuticals (UK) Limited, priority 2020, dated 2025).

Target: T1, human orexin type 2 receptor (hOX2R) (Homo sapiens, UniProt O43614)
T1 construct: expressed in transfected cells
T1 sequence (O43614 1-444): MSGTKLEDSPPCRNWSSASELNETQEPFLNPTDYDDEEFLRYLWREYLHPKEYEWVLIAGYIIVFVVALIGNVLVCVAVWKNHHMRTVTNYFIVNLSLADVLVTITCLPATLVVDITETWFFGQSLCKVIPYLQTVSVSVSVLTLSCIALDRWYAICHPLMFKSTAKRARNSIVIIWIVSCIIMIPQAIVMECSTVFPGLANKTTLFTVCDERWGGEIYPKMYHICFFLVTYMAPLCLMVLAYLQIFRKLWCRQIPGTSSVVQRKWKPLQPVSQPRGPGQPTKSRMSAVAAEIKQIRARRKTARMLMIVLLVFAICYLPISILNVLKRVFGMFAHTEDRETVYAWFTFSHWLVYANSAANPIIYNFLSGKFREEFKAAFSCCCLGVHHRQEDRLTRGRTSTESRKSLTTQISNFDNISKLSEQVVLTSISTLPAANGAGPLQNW
Assay: Measurement of orexin type 2 receptor agonist activity (FLIPR calcium fluorescence)
Type: cell-based
Details: CHO cells expressing hOX2R, FLIPR calcium fluorescence; for EC50: read-out: hOx2 pEC50 (converted); for Emax: CHO, read-out: hOx2 Emax (%)
How it was run: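 Agonism was read as fluorescence in cells stably expressing human OX2R. E. is the response at 10 μM relative to orexin A as full agonist (100%).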

Structure (SMILES) | EC50 | Emax
O=C([C@H]1CCO1)N1CC2(CC2)[C@H](NS(=O)(=O)C(F)F)[C@@H]1Cc1cc(F)cc(-c2cccc(F)c2)c1F [Compound 176, 1,1-difluoro-N-((6S,7S)-5-((R)-oxetane-2-carbonyl)-6-((2,3′,5-trifluoro-[1,1′-biphenyl]-3-yl)methyl)-5-azaspiro[2.4]heptan-7-yl)methanesulfonamide] | 1 to 10 nM | 90 to 100%
[2H]c1ccc(-c2cc(F)cc(C[C@H]3[C@@H](NS(C)(=O)=O)C4(CC4)CN3C(=O)[C@H]3CCO3)c2F)cc1 [Compound 359] | 10 to 100 nM | 90 to 100%
O=C([C@H]1CCO1)N1CC2(CC2)[C@H](NS(=O)(=O)N2CCC2)[C@@H]1Cc1cccc(-c2ccccc2)c1 [Compound 76, N-((6S,7S)-6-([1,1′-biphenyl]-3-ylmethyl)-5-((R)-oxetane-2-carbonyl)-5-azaspiro[2.4]heptan-7-yl)azetidine-1-sulfonamide] | 10 to 100 nM | 90 to 100%
CN(CCF)C(=O)N1CC2(CC2)[C@H](NS(C)(=O)=O)[C@@H]1Cc1cccc(-c2ccccc2)c1F [Compound 82, (6S,7S)-6-((2-fluoro-[1,1′-biphenyl]-3-yl)methyl)-N-(2-fluoroethyl)-N-methyl-7-(methylsulfonamido)-5-azaspiro[2.4]heptane-5-carboxamide] | 1 to 10 nM | 90 to 100%
C[C@@H](CF)NC(=O)N1CC2(CC2)[C@H](NS(C)(=O)=O)[C@@H]1Cc1cccc(-c2ccccc2)c1F [Compound 337, (6S,7S)-6-((2-fluoro-[1,1′-biphenyl]-3-yl)methyl)-N-((S)-1-fluoropropan-2-yl)-7-(methylsulfonamido)-5-azaspiro[2.4]heptane-5-carboxamide] | 1 to 10 nM | 90 to 100%
CS(=O)(=O)N[C@@H]1[C@H](Cc2cccc(-c3ccccc3)c2F)N(C(=O)NC[C@@H]2CCO2)CC12CC2 [Compound 333, (6S,7S)-6-((2-fluoro-[1,1′-biphenyl]-3-yl)methyl)-7-(methylsulfonamido)-N-(((S)-oxetan-2-yl)methyl)-5-azaspiro[2.4]heptane-5-carboxamide] | 1 to 10 nM | 90 to 100%
CO[C@@H](C)CN(C)C(=O)N1CC2(CC2)[C@H](NS(C)(=O)=O)[C@@H]1Cc1cccc(-c2ccccc2)c1F [Compound 316] | 1 to 10 nM | 90 to 100%
N#CC1(C(=O)N2CC3(CC3)[C@H](NS(=O)(=O)C(F)F)[C@@H]2Cc2cccc(-c3ccccc3)c2F)CCC1 [Compound 403] | 1 to 10 nM | 90 to 100%
CC(F)C(=O)N1CC2(CC2)C(NS(C)(=O)=O)C1Cc1cccc(-c2ccccc2)c1 (single isomer, unassigned) [Compound 1, N-(6-([1,1′-biphenyl]-3-ylmethyl)-5-(2-fluoropropanoyl)-5-azaspiro[2.4]heptan-7-yl)methanesulfonamide] | 10 to 100 nM | 70 to 80%
CC(C)(O)C(=O)N1CC2(CC2)[C@H](NS(=O)(=O)C(F)F)[C@@H]1Cc1cccc(-c2cccc(F)c2)c1F [Compound 164, N-((6S,7S)-6-((2,3′-difluoro-[1,1′-biphenyl]-3-yl)methyl)-5-(2-hydroxy-2-methylpropanoyl)-5-azaspiro[2.4]heptan-7-yl)-1,1-difluoromethanesulfonamide] | 10 to 100 nM | 80 to 90%
CCNC(=O)N1CC2(CC2)C(NS(=O)(=O)CF)C1Cc1cccc(-c2ccccc2)c1F (racemic) [Compound 109, N-ethyl-6-((2-fluoro-[1,1′-biphenyl]-3-yl)methyl)-7-((fluoromethyl)sulfonamido)-5-azaspiro[2.4]heptane-5-carboxamide] | 0.0794 to 1 nM | 90 to 100%
CC(C)(F)C(=O)N1CC2(CC2)C(NS(C)(=O)=O)C1Cc1cccc(-c2ccccc2)c1 (racemic) [Compound 13, N-(6-([1,1′-biphenyl]-3-ylmethyl)-5-(2-fluoro-2-methylpropanoyl)-5-azaspiro[2.4]heptan-7-yl)methanesulfonamide] | 100 to 1000 nM | 80 to 90%
O=C(NCC(F)(F)F)N1CC2(CC2)[C@H](NS(=O)(=O)CF)[C@@H]1Cc1cc(F)cc(-c2ccccc2)c1F [Compound 208, (6S,7S)-6-((2,5-difluoro-[1,1′-biphenyl]-3-yl)methyl)-7-((fluoromethyl)sulfonamido)-N-(2,2,2-trifluoroethyl)-5-azaspiro[2.4]heptane-5-carboxamide] | 0.0794 to 1 nM | 90 to 100%
CC[C@@H](O)C(=O)N1CC2(CC2)C(NS(C)(=O)=O)C1Cc1cccc(-c2ccccc2)c1 (mixture of isomers) [Compound 37, N-(6-([1,1′-biphenyl]-3-ylmethyl)-5-((R)-2-hydroxybutanoyl)-5-azaspiro[2.4]heptan-7-yl)methanesulfonamide] | 10 to 100 nM | 90 to 100%
CS(=O)(=O)N[C@@H]1[C@H](Cc2cccc(-c3ccccc3)c2F)N(C(=O)NC[C@H]2CCO2)CC12CC2 [Compound 331, (6S,7S)-6-((2-fluoro-[1,1′-biphenyl]-3-yl)methyl)-7-(methylsulfonamido)-N-(((R)-oxetan-2-yl)methyl)-5-azaspiro[2.4]heptane-5-carboxamide] | 1 to 10 nM | 90 to 100%
COC1CN(C(=O)N2CC3(CC3)[C@H](NS(=O)(=O)CF)[C@@H]2Cc2cccc(-c3cc(F)cc(F)c3)c2F)C1 [Compound 402, 1-fluoro-N-((6S,7S)-5-(3-methoxyazetidine-1-carbonyl)-6-((2,3′,5′-trifluoro-[1,1′-biphenyl]-3-yl)methyl)-5-azaspiro[2.4]heptan-7-yl)methanesulfonamide] | 1 to 10 nM | 90 to 100%
O=C([C@@H](O)C1CC1)N1CC2(CC2)[C@H](NS(=O)(=O)C(F)F)[C@@H]1Cc1cc(F)cc(-c2ccccc2)c1F [Compound 385] | 0.0794 to 1 nM | 90 to 100%
COC1CN(C(=O)N2CC3(CC3)C(NS(C)(=O)=O)C2Cc2cccc(-c3ccccc3)c2F)C1 (racemic) [Compound 46, N-(6-((2-fluoro-[1,1′-biphenyl]-3-yl)methyl)-5-(3-methoxyazetidine-1-carbonyl)-5-azaspiro[2.4]heptan-7-yl)methanesulfonamide] | 10 to 100 nM | 90 to 100%
C[C@]1(NC(=O)N2CC3(CC3)[C@H](NS(C)(=O)=O)[C@@H]2Cc2cccc(-c3ccccc3)c2F)CCOC1 [Compound 320, (6S,7S)-6-((2-fluoro-[1,1′-biphenyl]-3-yl)methyl)-7-(methylsulfonamido)-N-((S)-3-methyltetrahydrofuran-3-yl)-5-azaspiro[2.4]heptane-5-carboxamide] | 10 to 100 nM | 90 to 100%
COC1(CNC(=O)N2CC3(CC3)[C@H](NS(C)(=O)=O)[C@@H]2Cc2cccc(-c3ccccc3)c2F)CC1 [Compound 100, (6S,7S)-6-((2-fluoro-[1,1′-biphenyl]-3-yl)methyl)-N-((1-methoxycyclopropyl)methyl)-7-(methylsulfonamido)-5-azaspiro[2.4]heptane-5-carboxamide] | 0.0794 to 1 nM | 90 to 100%
COC1(CNC(=O)N2CC3(CC3)[C@H](NS(=O)(=O)C(F)F)[C@@H]2Cc2cccc(-c3ccccc3)c2F)CC1 [Compound 215, (6S,7S)-7-((difluoromethyl)sulfonamido)-6-((2-fluoro-[1,1′-biphenyl]-3-yl)methyl)-N-((1-methoxycyclopropyl)methyl)-5-azaspiro[2.4]heptane-5-carboxamide] | 0.0794 to 1 nM | 90 to 100%
CC[C@@H](O)C(=O)N1CC2(CC2)[C@H](NS(C)(=O)=O)[C@@H]1Cc1cccc(-c2ccccc2)c1 (racemic) [Compound 300] | 10 to 100 nM | 90 to 100%
CN(C)S(=O)(=O)N[C@@H]1[C@H](Cc2cc(F)cc(-c3cccc(F)c3)c2F)N(C(=O)[C@H]2CCO2)CC12CC2 [Compound 124, 1-fluoro-N-((6S,7S)-5-((R)-oxetane-2-carbonyl)-6-((2,3′,5-trifluoro-[1,1′-biphenyl]-3-yl)methyl)-5-azaspiro[2.4]heptan-7-yl)-N,N-dimethylsulfuric diamide] | 0.0794 to 1 nM | 80 to 90%
O=C(NCCF)N1CC2(CC2)[C@H](NS(=O)(=O)C(F)F)[C@@H]1Cc1cccc(-c2ccccc2)c1F [Compound 207, (6S,7S)-7-((difluoromethyl)sulfonamido)-6-((2-fluoro-[1,1′-biphenyl]-3-yl)methyl)-N-(2-fluoroethyl)-5-azaspiro[2.4]heptane-5-carboxamide] | 1 to 10 nM | 90 to 100%
O=C([C@H](O)C(F)(F)F)N1CC2(CC2)[C@H](NS(=O)(=O)CF)[C@@H]1Cc1cccc(-c2ccccc2)c1F [Compound 98, 1-fluoro-N-((6S,7S)-6-((2-fluoro-[1,1′-biphenyl]-3-yl)methyl)-5-((S)-3,3,3-trifluoro-2-hydroxypropanoyl)-5-azaspiro[2.4]heptan-7-yl)methanesulfonamide] | 1 to 10 nM | 90 to 100%
C[C@@H](F)C(=O)N1CC2(CC2)[C@H](NS(=O)(=O)CF)[C@@H]1Cc1cc(F)cc(-c2cc(F)cc(F)c2)c1F [Compound 414, 1-fluoro-N-((6S,7S)-5-((R)-2-fluoropropanoyl)-6-((2,3′,5,5′-tetrafluoro-[1,1′-biphenyl]-3-yl)methyl)-5-azaspiro[2.4]heptan-7-yl)methanesulfonamide] | 0.0794 to 1 nM | 90 to 100%
